Target: T1, human 11βHSD1 enzyme (Homo sapiens, UniProt P28845)
T1 construct: N terminal 6-His tagged full length human 11βHSD1 enzyme; 6-His (N); made in house
Assay: 11βHSD1 competitive HTRF assay (conversion of cortisone to cortisol)
Assay type: biochemical
Conditions: for IC50: baculovirus expressed N terminal 6-His tagged full length human 11βHSD1, cortisone 160 nM, 25 minutes at 37° C.; for activity in the 11βHSD1 assay: at 30 μM
Procedure: The conversion of cortisone to the active steroid cortisol by 11βHSD1 oxo-reductase activity, can be measured using a competitive homogeneous time resolved fluorescence assay (HTRF) (CisBio International, R&D, Administration and Europe Office, In Vitro Technologies—HTRF®/Bioassays BP 84175, 30204 Bagnols/Cèze Cedex, France. Cortisol bulk HTRF kit: Cat No. 62CORPEC).
The evaluation of compounds described herein was carried out using a baculovirus expressed N terminal 6-His tagged full length human 11βHSD1 enzyme(*1). The enzyme was purified from a detergent solublised cell lysate, using a copper chelate column. Inhibitors of 11βHSD1 reduce the conversion of cortisone to cortisol, which is identified by an increase in signal, in the above assay.
Compounds to be tested were dissolved in dimethyl sulphoxide (DMSO) to 10 mM and diluted further in assay buffer containing 10% DMSO to 10 fold the final assay concentration. Diluted compounds were then plated into black 384 well plates (Matrix, Hudson N.H., USA).
The assay was carried out in a total volume of 20 μl consisting of cortisone (Sigma, Poole, Dorset, UK, 160 nM), glucose-6-phosphate (Roche Diagnostics, 1 mM), NADPH (Roche Diagnostics, 100 μM), glucose-6-phosphate dehydrogenase (Roche Diagnostics, 12.5 μg/ml), EDTA (Sigma, Poole, Dorset, UK, 1 mM), assay buffer (K2HPO4/KH2PO4, 100 mM) pH 7.5, recombinant 11βHSD1 (1.5 μg/ml) plus test compound. The assay plates were incubated for 25 minutes at 37° C. after which time the reaction was stopped by the addition of 10 μl of 0.5 mM glycerrhetinic acid plus cortisol-XL665. 10 μl of anti-cortisol Cryptate was then added and the plates sealed and incubated for 6 hours at room temperature. Fluorescence at 665 nm and 620 nm was measured and the 665 nm:620 nm ratio calculated using an Envision plate reader.

T1 sequence (P28845 whole entry): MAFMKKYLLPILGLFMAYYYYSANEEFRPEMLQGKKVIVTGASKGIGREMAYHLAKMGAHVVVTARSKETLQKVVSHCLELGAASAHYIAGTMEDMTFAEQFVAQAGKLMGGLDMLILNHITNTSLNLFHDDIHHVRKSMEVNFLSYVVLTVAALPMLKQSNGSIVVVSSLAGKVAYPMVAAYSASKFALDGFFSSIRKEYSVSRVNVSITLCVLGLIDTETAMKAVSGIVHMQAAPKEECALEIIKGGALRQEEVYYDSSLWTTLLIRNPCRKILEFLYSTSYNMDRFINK

Structure (SMILES) | IC50 | activity in the 11βHSD1 assay
O=C(NC1CCCCC1)c1cccnc1SCCc1ccccn1 [Example 3, N-Cyclohexyl-2-(2-pyridin-2-ylethylsulfanyl)pyridine-3-carboxamide] | 890 nM | 
O=C(NC1CCCCC1)c1cccnc1SCCc1ccccc1 [Example 4, N-Cyclohexyl-2-phenethylsulfanyl-pyridine-3-carboxamide] | 27 nM | 
O=C(NC1CCCCC1)c1ccc(C(F)(F)F)nc1SCCc1ccccc1 [N-cyclohexyl-2-(phenethylsulfanyl)-6-trifluoromethylpyridine-3-carboxamide] |  | did not show activity
O=C(O)c1ccccc1CCSc1ncccc1C(=O)NC1CCCCC1 [N-cyclohexyl-2-[2-(2-carboxyphenyl)ethyl)sulfanyl]pyridine-3-carboxamide] |  | did not show activity
